Assay results: patent US20200325543A1, “DIAGNOSTIC METHOD” (TOLREMO THERAPEUTICS AG, priority 2017, published 2020)
Several values for one entry are separate records, joined by “and”; a condition that tells them apart may be missing. Identical values can stand only once. Counter-ions that a name gives are not always drawn. Like-named read-outs stand apart in the source and are kept apart here.

Tested on: SOX2
Experiment: Screen of a library of FDA-approved drugs for SOX2 antibody staining in A375 cells treated with PLX4720 and AZD6244
Conditions: for cor. loess: normalized and geometry-corrected (loess) signal; for norm: signal after plate normalization
[1] = A375 cells, 5 uM test drug with 1 uM PLX4720 and 0.5 uM AZD6244, 24 h
[2] = A375 cells, 5 uM test drug with 1 uM PLX4720 and 0.5 uM AZD6244, 24 h, raw signal (ratio of FL2 SOX2 antibody and FL3 nuclear staining), screen run in duplicate
[3] = Z-test against negative controls (DMSO), single dose 5 uM

SMILES | cor. loess [1] | raw [2] | norm [1] | z [3] | raw | z
CCN(CC)C(=S)SSC(=S)N(CC)CC | 0.5909 | 0.973 | 0.642 | 4.87 | – | –
CC(=O)Nc1c(I)cc(I)c(C(=O)O)c1I [ACETRIAZOIC ACID] | 0.3537 | 0.9817 | 0.3797 | 4.812 | – | –
CC(=O)N[C@@H](CC(C)C)C(=O)O [ACETYL-L-LEUCINE] | 0.5782 | 0.9737 | 0.5922 | 6.41 | – | –
CCCCCCc1ccc(O)cc1O.Nc1c2ccccc2nc2ccccc12 [ACRISORCIN] | – | 0.9675 and 0.9751 | 0.7754 and 0.5959 | 4.872 and 7.943 | – | –
CCCSc1ccc2nc(NC(=O)OC)[nH]c2c1 [ALBENDAZOLE] | 0.3977 | – | 0.3992 | 5.411 | 0.9811 | –
CC(=O)OCC(=O)[C@@]12OC3(CCCC3)O[C@@H]1C[C@H]1[C@@H]3CCC4=CC(=O)C=C[C@]4(C)[C@@]3(F)[C@@H](O)C[C@@]12C [AMCINONIDE] | 0.491 | 0.9761 | 0.5647 | 6.68 | – | –
CCN(CC)Cc1cc(Nc2ccnc3cc(Cl)ccc23)ccc1O [AMODIAQUINE DIHYDROCHLORIDE] | 0.9308 | 0.9611 | 1.053 | 7.671 | – | –
C[C@H]1[C@@H](O)O[C@@H]2O[C@@]3(C)CC[C@H]4[C@H](C)CC[C@@H]1[C@@]24OO3 [ARTENIMOL] | 0.4829 | 0.978 | 0.4488 | 5.354 | – | –
C[C@H]1[C@H](OC(=O)CCC(=O)O)O[C@@H]2O[C@@]3(C)CC[C@H]4[C@H](C)CC[C@@H]1[C@@]24OO3 [ARTESUNATE] | 0.3246 | 0.9835 | 0.3139 | 3.471 | – | –
Nc1ncn([C@@H]2O[C@H](CO)[C@@H](O)[C@H]2O)c(=O)n1 [AZACITIDINE] | 0.9945 | 0.9651 | 0.9714 | 8.534 | – | –
S=C(NCc1ccc2c(c1)OCO2)N1CCN(c2ncnc3c2oc2ccccc23)CC1 [Amuvatinib (MP-470), Amuvatinib] | 0.5191 | 0.9748 | 0.6031 | 4.05 | – | –
CC(C)(C)CC(C)(C)c1ccc(OCCOCC[N+](C)(C)Cc2ccccc2)cc1 [BENZETHONIUM CHLORIDE] | 0.9288 | 0.9635 | 0.9712 | 7.654 | – | –
O=C(Oc1cccc2cccnc12)c1ccccc1 [BENZOXIQUINE] | 0.5846 | 0.9731 | 0.6197 | 3.458 | – | –
CCC(=O)OCC(=O)[C@@]1(OC(=O)CC)[C@@H](C)C[C@H]2[C@@H]3CCC4=CC(=O)C=C[C@]4(C)[C@@]3(F)[C@@H](O)C[C@@]21C [BETAMETHASONE 17,21-DIPROPIONATE] | 0.4356 | 0.9801 | 0.4336 | 5.927 | – | –
O=[N+]([O-])C(Br)(CO)CO [BRONOPOL] | 0.4507 | 0.9779 | 0.4505 | 4.996 | – | –
CCCCN1CCCCC1C(=O)Nc1c(C)cccc1C (centres unmarked) [BUPIVACAINE HYDROCHLORIDE] | 0.2934 | 0.9835 | 0.3196 | 3.991 | – | –
COC(=O)[C@]12CCC(C)(C)C[C@H]1[C@H]1C(=O)C=C3[C@@]4(C)C=C(C#N)C(=O)C(C)(C)[C@@H]4CC[C@@]3(C)[C@]1(C)CC2 [Bardoxolone Methyl] | 1.25 | 0.9513 | 1.346 | 9.753 | – | –
CCCCCCCCCCCCCCCC[N+](C)(C)C.[Br-] [CETRIMONIUM BROMIDE] | 5.014 | 0.8841 | 4.765 | 19.51 | – | –
O=C1c2ccccc2C(=O)C1c1ccc(Cl)cc1 [CHLORINDIONE] | 0.3463 | 0.9825 | 0.2966 | 3.839 | – | –
CCC(=O)O[C@]1(C(=O)CCl)[C@@H](C)C[C@H]2[C@@H]3CCC4=CC(=O)C=C[C@]4(C)[C@@]3(F)[C@@H](O)C[C@@]21C [CLOBETASOL PROPIONATE] | 0.4021 | 0.9794 | 0.4554 | 5.471 | – | –

SMILES | cor. loess [1] | raw [2] | norm [1] | z [3] | raw | z
COc1cc2c(c(OC)c1OC)-c1ccc(OC)c(=O)cc1[C@@H](NC(C)=O)CC2 [COLCHICINE] | 0.7111 | 0.9693 | 0.7731 | 5.86 | – | –
C[C@@H]1C[C@@H]([C@H](O)CC2CC(=O)NC(=O)C2)C(=O)[C@@H](C)C1 [CYCLOHEXIMIDE] | 0.6971 | 0.9738 | 0.6756 | 5.982 | – | –
CCS(=O)(=O)N1CCN(c2ccc(Nc3ncc(C(N)=O)c(NC4CC4)n3)cc2)CC1 [Cerdulatinib (PRT062070, PRT2070), Cerdulatinib] | 0.4672 | 0.9741 | 0.6248 | 3.646 | – | –
Nc1cc(F)ccc1NC(=O)c1ccc(CNC(=O)/C=C/c2cccnc2)cc1 [Chidamide] | 1.067 | 0.9618 | 1.02 | 7.547 | – | –
CC(=O)OCC(=O)[C@@]1(O)[C@H](C)C[C@H]2[C@@H]3CCC4=CC(=O)C=C[C@]4(C)[C@@]3(F)[C@@H](O)C[C@@]21C [DEXAMETHASONE ACETATE] | 0.4615 | 0.9769 | 0.5088 | 3.803 | – | –
C[C@@H]1C[C@H]2[C@@H]3CCC4=CC(=O)C=C[C@]4(C)[C@@]3(F)[C@@H](O)C[C@]2(C)[C@@]1(O)C(=O)COP(=O)(O)O [DEXAMETHASONE SODIUM PHOSPHATE] | 0.5299 | 0.9748 | 0.5817 | 4.367 | – | –
CC(=O)OCC(=O)[C@@]1(O)CC[C@H]2[C@@H]3CCC4=CC(=O)C=C[C@]4(C)[C@@]3(Cl)[C@@H](Cl)C[C@@]21C [DICHLORISONE ACETATE] | 0.4911 | 0.9771 | 0.4765 | 5.445 | – | –
C[C@H]1O[C@@H](O[C@H]2[C@@H](O)C[C@H](O[C@H]3[C@@H](O)C[C@H](O[C@H]4CC[C@@]5(C)[C@H](CC[C@@H]6[C@@H]5CC[C@]5(C)[C@@H](C7=CC(=O)OC7)CC[C@]65O)C4)O[C@@H]3C)O[C@@H]2C)C[C@H](O)[C@@H]1O [DIGITOXIN] | 1.488 | 0.9468 | 1.549 | 12.26 | – | –
C[C@H]1O[C@@H](O[C@H]2[C@@H](O)C[C@H](O[C@H]3[C@@H](O)C[C@H](O[C@H]4CC[C@@]5(C)[C@H](CC[C@@H]6[C@@H]5C[C@@H](O)[C@]5(C)[C@@H](C7=CC(=O)OC7)CC[C@]65O)C4)O[C@@H]3C)O[C@@H]2C)C[C@H](O)[C@@H]1O [DIGOXIN] | 1.623 | 0.9433 | 1.668 | 13.38 | – | –
CCCCc1oc2ccc(NS(C)(=O)=O)cc2c1C(=O)c1ccc(OCCCN(CCCC)CCCC)cc1 [DRONEDARONE HYDROCHLORIDE] | 3.823 | 0.8721 | 4.004 | 52.01 | – | –
CCCC(=O)O[C@]1(C(=O)COC(C)=O)CC[C@H]2[C@@H]3C[C@H](F)C4=CC(=O)C=C[C@]4(C)[C@@]3(F)[C@@H](O)C[C@@]21C [Difluprednate] | 0.4529 | 0.9801 | 0.4293 | 4.842 | – | –
CCOC(=O)COc1ccc2c(=O)cc(-c3ccccc3)oc2c1 [EFLOXATE] | 1.468 | 0.955 | 1.397 | 5.713 | – | –
CC[C@H]1CN2CCc3cc(OC)c(OC)cc3[C@@H]2C[C@@H]1C[C@H]1NCCc2cc(OC)c(OC)cc21 [EMETINE DIHYDROCHLORIDE] | 1.429 | 0.9485 | 1.489 | – | – | 11.78
Nc1ccccc1NC(=O)c1ccc(CNC(=O)OCc2cccnc2)cc1 [Entinostat (MS-275), Entinostat] | 0.6933 | 0.9672 | 0.8427 | 5.41 | – | –
Cc1cc(C#N)cc(C)c1Oc1nc(Nc2ccc(C#N)cc2)nc(N)c1Br [Etravirine (TMC125), Etravirine] | 0.646 | 0.9731 | 0.6589 | 6.907 | – | –
COC(=O)Nc1nc2ccc(Sc3ccccc3)cc2[nH]1 [FENBENDAZOLE] | 0.4709 | 0.9808 | 0.4377 | 4.041 | – | –
O=c1[nH]c(=O)n([C@H]2C[C@H](O)[C@@H](CO)O2)cc1F [FLOXURIDINE] | 0.3344 | 0.9795 | 0.4513 | 4.549 | – | –
CC(=O)OCC(=O)[C@@]1(O)CC[C@H]2[C@@H]3CCC4=CC(=O)CC[C@]4(C)[C@@]3(F)[C@@H](O)C[C@@]21C [FLUDROCORTISONE ACETATE] | 0.4578 | 0.977 | 0.5063 | 3.773 | – | –
C[C@@H]1C[C@H]2[C@@H]3C[C@H](F)C4=CC(=O)C=C[C@]4(C)[C@@]3(F)[C@@H](O)C[C@]2(C)[C@@]1(O)C(=O)COC(=O)C(C)(C)C [FLUMETHAZONE PIVALATE] | 0.4809 | 0.9766 | 0.5179 | 3.963 | – | –
